Experimental data from ChEMBL document CHEMBL1221301, “SAR studies of non-zinc-chelating MMP-13 inhibitors: improving selectivity and metabolic stability” (Bioorg Med Chem Lett, 2010).

System: not listed separately
Assay: Aqueous solubility of the compound at pH 7.4
Type: physicochemical
Conditions: aqueous medium

Row | solubility | SMILES
1 | > 50 µg/mL | CNC(=O)[C@@H](NC(=O)c1ccc(-c2cccc(CNC(=O)c3ccnc(C(F)(F)F)n3)c2)o1)C(C)(C)O

System: Liver microsomes
Assay: Metabolic stability in human liver microsomes
Type: ADME, Microsome
Conditions: not given

Row | SMILES | Stability
2 | CNC(=O)[C@@H](NC(=O)c1ccc(-c2cccc(CNC(=O)c3ccnc(C(F)(F)F)n3)c2)o1)C1CC1 | 69%
3 | CNC(=O)[C@@H](NC(=O)c1ccc(-c2cccc(CNC(=O)c3cccc(C(F)(F)F)n3)c2)o1)C(C)C | 88%

Other lines, results leading:

Row | Stability | SMILES
4 | 81% | CNC(=O)[C@H](NC(=O)c1ccc(-c2cccc(CNC(=O)c3cccc(C(F)(F)F)n3)c2)o1)C1CCCCC1
5 | 14% | CNC(=O)[C@@H](NC(=O)c1ccc(-c2cccc(CNC(=O)c3ccnc(C(F)(F)F)n3)c2)o1)C(C)(C)O
6 | 66% | CNC(=O)[C@H](NC(=O)c1ccc(-c2cccc(CNC(=O)c3ccnc(C(F)(F)F)n3)c2)o1)C1CCCCC1
7 | 24% | CNC(=O)[C@@H](NC(=O)c1ccc(-c2cccc(CNC(=O)c3ccnc(C(F)(F)F)n3)c2)o1)C1CCOCC1
8 | 62% | CNC(=O)[C@@H](NC(=O)c1ccc(-c2cccc(CNC(=O)c3cccc(C(F)(F)F)n3)c2)o1)C(C)(C)O
9 | 60% | CNC(=O)[C@@H](NC(=O)c1ccc(-c2cccc(CNC(=O)c3cccc(C(F)(F)F)n3)c2)o1)C1CC1
10 | 83% | CNC(=O)[C@@H](NC(=O)c1ccc(-c2cccc(CNC(=O)c3cccc(C(F)(F)F)n3)c2)o1)C1CCOCC1
11 | 70% | CNC(=O)[C@@H](NC(=O)c1ccc(-c2cccc(CNC(=O)c3ccnc(C(F)(F)F)n3)c2)o1)C(C)C

System: not listed separately
Assay: Selectivity ratio of IC50 for MMP10 to IC50 for MMP13
Conditions: not given

Row | SMILES | Ratio IC50
12 | CNC(=O)[C@H](NC(=O)c1ccc(-c2cccc(CNC(=O)c3ncccc3C)c2)o1)C1CCCCC1 | 31
13 | CNC(=O)[C@H](NC(=O)c1ccc(-c2cccc(CNC(=O)c3occc3C)c2)o1)C1CCCCC1 | 17
14 | CNC(=O)[C@H](NC(=O)c1ccc(-c2cccc(CNC(=O)c3csc(C)n3)c2)o1)C1CCCCC1 | 7
15 | CNC(=O)[C@@H](NC(=O)c1ccc(-c2cccc(CNC(=O)c3ccnc(C(F)(F)F)n3)c2)o1)C1CC1 | 170
16 | CNC(=O)[C@H](NC(=O)c1ccc(-c2cccc(CNC(=O)c3ccncc3)c2)o1)C1CCCCC1 | 4
17 | CNC(=O)[C@@H](NC(=O)c1ccc(-c2cccc(CNC(=O)c3cccc(C(F)(F)F)n3)c2)o1)C(C)C | 260

Other lines, results leading:

Row | Ratio IC50 | SMILES
18 | > 2300 | CNC(=O)[C@H](NC(=O)c1ccc(-c2cccc(CNC(=O)c3cccc(C(F)(F)F)n3)c2)o1)C1CCCCC1
19 | 370 | CNC(=O)[C@H](NC(=O)c1ccc(-c2cccc(CNC(=O)c3ccnc(C(F)(F)F)n3)c2)o1)C1CCCCC1
20 | 100 | CNC(=O)[C@@H](NC(=O)c1ccc(-c2cccc(CNC(=O)c3ccnc(C(F)(F)F)n3)c2)o1)C1CCOCC1
21 | 440 | CNC(=O)[C@@H](NC(=O)c1ccc(-c2cccc(CNC(=O)c3cccc(C(F)(F)F)n3)c2)o1)C(C)(C)O
22 | 130 | CNC(=O)[C@@H](NC(=O)c1ccc(-c2cccc(CNC(=O)c3cccc(C(F)(F)F)n3)c2)o1)C1CCOCC1
23 | 50 | CNC(=O)[C@@H](NC(=O)c1ccc(-c2cccc(CNC(=O)c3ccnc(C(F)(F)F)n3)c2)o1)C(C)C

System: not listed separately
Assay: Selectivity ratio of IC50 for MMP3 to IC50 for MMP13
Conditions: not given

Row | SMILES | Ratio IC50
24 | CNC(=O)[C@H](NC(=O)c1ccc(-c2cccc(CNC(=O)c3ncccc3C)c2)o1)C1CCCCC1 | 85
25 | CNC(=O)[C@H](NC(=O)c1ccc(-c2cccc(CNC(=O)c3occc3C)c2)o1)C1CCCCC1 | > 110
26 | CNC(=O)[C@@H](NC(=O)c1ccc(-c2cccc(CNC(=O)c3ccnc(C(F)(F)F)n3)c2)o1)C1CC1 | 540
27 | CNC(=O)[C@@H](NC(=O)c1ccc(-c2cccc(CNC(=O)c3cccc(C(F)(F)F)n3)c2)o1)C(C)C | 1000

Further lines, results first:

Row | Ratio IC50 | SMILES
28 | > 2300 | CNC(=O)[C@H](NC(=O)c1ccc(-c2cccc(CNC(=O)c3cccc(C(F)(F)F)n3)c2)o1)C1CCCCC1
29 | > 2800 | CNC(=O)[C@H](NC(=O)c1ccc(-c2cccc(CNC(=O)c3ccnc(C(F)(F)F)n3)c2)o1)C1CCCCC1
30 | 250 | CNC(=O)[C@@H](NC(=O)c1ccc(-c2cccc(CNC(=O)c3ccnc(C(F)(F)F)n3)c2)o1)C1CCOCC1
31 | > 400 | CNC(=O)[C@@H](NC(=O)c1ccc(-c2cccc(CNC(=O)c3cccc(C(F)(F)F)n3)c2)o1)C(C)(C)O
32 | 330 | CNC(=O)[C@@H](NC(=O)c1ccc(-c2cccc(CNC(=O)c3cccc(C(F)(F)F)n3)c2)o1)C1CCOCC1
33 | 200 | CNC(=O)[C@@H](NC(=O)c1ccc(-c2cccc(CNC(=O)c3ccnc(C(F)(F)F)n3)c2)o1)C(C)C

System: not listed separately
Assay: Selectivity ratio of IC50 for MMP2 to IC50 for MMP13
Conditions: not given

Row | SMILES | Ratio IC50
34 | CNC(=O)[C@H](NC(=O)c1ccc(-c2cccc(CNC(=O)c3ncccc3C)c2)o1)C1CCCCC1 | > 200
35 | CNC(=O)[C@H](NC(=O)c1ccc(-c2cccc(CNC(=O)c3occc3C)c2)o1)C1CCCCC1 | > 110
36 | CNC(=O)[C@H](NC(=O)c1ccc(-c2cccc(CNC(=O)c3csc(C)n3)c2)o1)C1CCCCC1 | 310
37 | CNC(=O)[C@@H](NC(=O)c1ccc(-c2cccc(CNC(=O)c3ccnc(C(F)(F)F)n3)c2)o1)C1CC1 | 580
38 | CNC(=O)[C@H](NC(=O)c1ccc(-c2cccc(CNC(=O)c3ccncc3)c2)o1)C1CCCCC1 | 310
39 | CNC(=O)[C@@H](NC(=O)c1ccc(-c2cccc(CNC(=O)c3cccc(C(F)(F)F)n3)c2)o1)C(C)C | > 3600

Next, values leading:

Row | Ratio IC50 | SMILES
40 | > 2300 | CNC(=O)[C@H](NC(=O)c1ccc(-c2cccc(CNC(=O)c3cccc(C(F)(F)F)n3)c2)o1)C1CCCCC1
41 | > 2800 | CNC(=O)[C@H](NC(=O)c1ccc(-c2cccc(CNC(=O)c3ccnc(C(F)(F)F)n3)c2)o1)C1CCCCC1
42 | 640 | CNC(=O)[C@@H](NC(=O)c1ccc(-c2cccc(CNC(=O)c3ccnc(C(F)(F)F)n3)c2)o1)C1CCOCC1
43 | > 770 | CNC(=O)[C@@H](NC(=O)c1ccc(-c2cccc(CNC(=O)c3cccc(C(F)(F)F)n3)c2)o1)C(C)(C)O
44 | 1500 | CNC(=O)[C@@H](NC(=O)c1ccc(-c2cccc(CNC(=O)c3cccc(C(F)(F)F)n3)c2)o1)C1CCOCC1
45 | 850 | CNC(=O)[C@@H](NC(=O)c1ccc(-c2cccc(CNC(=O)c3ccnc(C(F)(F)F)n3)c2)o1)C(C)C

System: not listed separately
Assay: Aqueous solubility of the compound at pH 4.5
Type: physicochemical
Conditions: aqueous medium

Row | solubility | SMILES
46 | > 50 µg/mL | CNC(=O)[C@@H](NC(=O)c1ccc(-c2cccc(CNC(=O)c3ccnc(C(F)(F)F)n3)c2)o1)C(C)(C)O

Biological target: Collagenase 3 (Homo sapiens, UniProt P45452)
Conditions: not given

Row | SMILES | IC50
47 | CNC(=O)[C@H](NC(=O)c1ccc(-c2cccc(CNC(=O)c3ncccc3C)c2)o1)C1CCCCC1 | 100 nM
48 | CNC(=O)[C@H](NC(=O)c1ccc(-c2cccc(CNC(=O)c3occc3C)c2)o1)C1CCCCC1 | 180 nM
49 | CNC(=O)[C@H](NC(=O)c1ccc(-c2cccc(CNC(=O)c3csc(C)n3)c2)o1)C1CCCCC1 | 8 nM
50 | CNC(=O)[C@@H](NC(=O)c1ccc(-c2cccc(CNC(=O)c3ccnc(C(F)(F)F)n3)c2)o1)C1CC1 | 36 nM
51 | CNC(=O)[C@H](NC(=O)c1ccc(-c2cccc(CNC(=O)c3ccncc3)c2)o1)C1CCCCC1 | 31 nM
52 | CNC(=O)[C@@H](NC(=O)c1ccc(-c2cccc(CNC(=O)c3cccc(C(F)(F)F)n3)c2)o1)C(C)C | 6 nM

The remaining lines, values ahead:

Row | IC50 | SMILES
53 | 9 nM | CNC(=O)[C@H](NC(=O)c1ccc(-c2cccc(CNC(=O)c3cccc(C(F)(F)F)n3)c2)o1)C1CCCCC1
54 | 7 nM | CNC(=O)[C@H](NC(=O)c1ccc(-c2cccc(CNC(=O)c3ccnc(C(F)(F)F)n3)c2)o1)C1CCCCC1
55 | 25 nM | CNC(=O)[C@@H](NC(=O)c1ccc(-c2cccc(CNC(=O)c3cccc(C(F)(F)F)n3)c2)o1)C(C)(C)O
56 | 9 nM | CNC(=O)[C@@H](NC(=O)c1ccc(-c2cccc(CNC(=O)c3ccnc(C(F)(F)F)n3)c2)o1)C(C)C

System: not listed separately
Assay: Volume of distribution at steady state in rat at 1 mg/kg, iv
Type: ADME, organism-based
Parameters: dose 1 mg/kg, route intravenous
Conditions: in vivo, read-out: Vdss

Row | SMILES | Vd
57 | CNC(=O)[C@@H](NC(=O)c1ccc(-c2cccc(CNC(=O)c3ccnc(C(F)(F)F)n3)c2)o1)C1CC1 | 1.2 L/kg
58 | CNC(=O)[C@@H](NC(=O)c1ccc(-c2cccc(CNC(=O)c3ccnc(C(F)(F)F)n3)c2)o1)C(C)(C)O | 0.9 L/kg

System: not listed separately
Assay: Selectivity ratio of IC50 for MMP8 to IC50 for MMP13
Conditions: not given

Row | SMILES | Ratio IC50
59 | CNC(=O)[C@H](NC(=O)c1ccc(-c2cccc(CNC(=O)c3ncccc3C)c2)o1)C1CCCCC1 | > 200
60 | CNC(=O)[C@H](NC(=O)c1ccc(-c2cccc(CNC(=O)c3occc3C)c2)o1)C1CCCCC1 | > 110
61 | CNC(=O)[C@H](NC(=O)c1ccc(-c2cccc(CNC(=O)c3csc(C)n3)c2)o1)C1CCCCC1 | 1800
62 | CNC(=O)[C@@H](NC(=O)c1ccc(-c2cccc(CNC(=O)c3ccnc(C(F)(F)F)n3)c2)o1)C1CC1 | > 560
63 | CNC(=O)[C@H](NC(=O)c1ccc(-c2cccc(CNC(=O)c3ccncc3)c2)o1)C1CCCCC1 | > 660
64 | CNC(=O)[C@@H](NC(=O)c1ccc(-c2cccc(CNC(=O)c3cccc(C(F)(F)F)n3)c2)o1)C(C)C | > 3600

More lines, now with the values ahead:

Row | Ratio IC50 | SMILES
65 | > 2300 | CNC(=O)[C@H](NC(=O)c1ccc(-c2cccc(CNC(=O)c3cccc(C(F)(F)F)n3)c2)o1)C1CCCCC1
66 | > 2800 | CNC(=O)[C@H](NC(=O)c1ccc(-c2cccc(CNC(=O)c3ccnc(C(F)(F)F)n3)c2)o1)C1CCCCC1
67 | > 11000 | CNC(=O)[C@@H](NC(=O)c1ccc(-c2cccc(CNC(=O)c3ccnc(C(F)(F)F)n3)c2)o1)C1CCOCC1
68 | > 810 | CNC(=O)[C@@H](NC(=O)c1ccc(-c2cccc(CNC(=O)c3cccc(C(F)(F)F)n3)c2)o1)C(C)(C)O
69 | 7100 | CNC(=O)[C@@H](NC(=O)c1ccc(-c2cccc(CNC(=O)c3cccc(C(F)(F)F)n3)c2)o1)C1CCOCC1
70 | > 2100 | CNC(=O)[C@@H](NC(=O)c1ccc(-c2cccc(CNC(=O)c3ccnc(C(F)(F)F)n3)c2)o1)C(C)C

System: not listed separately
Assay: Half life in rat at 1 mg/kg, iv
Type: ADME, organism-based
Parameters: dose 1 mg/kg, route intravenous
Conditions: in vivo

Row | SMILES | half-life
71 | CNC(=O)[C@@H](NC(=O)c1ccc(-c2cccc(CNC(=O)c3ccnc(C(F)(F)F)n3)c2)o1)C1CC1 | 42 min
72 | CNC(=O)[C@@H](NC(=O)c1ccc(-c2cccc(CNC(=O)c3ccnc(C(F)(F)F)n3)c2)o1)C(C)(C)O | 57 min

System: Rattus norvegicus
Assay: Clearance in rat as % of liver blood flow at 1 mg/kg, iv
Type: ADME, organism-based
Parameters: dose 1 mg/kg, route intravenous
Conditions: in vivo

Row | SMILES | Fraction of Liver Blood Flow
73 | CNC(=O)[C@@H](NC(=O)c1ccc(-c2cccc(CNC(=O)c3ccnc(C(F)(F)F)n3)c2)o1)C1CC1 | 47%
74 | CNC(=O)[C@@H](NC(=O)c1ccc(-c2cccc(CNC(=O)c3ccnc(C(F)(F)F)n3)c2)o1)C(C)(C)O | 26%
